Laboratory results: ChEMBL document CHEMBL1201862, “PubChem BioAssay data set” (2004)
Calls of active or inactive are those of the source. Cut-off read from the data, not from the text of the source, for most assays here: actives have a measured EC50 and inactives only a lower limit.

Columns and labels:
[1] = NIH-3T3 fibroblast cytotoxicity, dose response, cytotoxicity control, cell-based, fluorescence, Alamar Blue, secondary assay (AID 2327); assay type: functional;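 note: NIH-3T3 mouse fibroblasts cultured with fluconazole at 8 µg/mL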
[2] = C. albicans growth with fluconazole, confirmation, fluorescence, retest (AID 2467); assay type: functional, cell-based
[3] = inhibitors of intracellular T. cruzi replication, confirmation, NIH3T3 host cells, beta-gal luminescence (AID 2044); assay type: functional, cell-based;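 note: intracellular parasites grown in NIH/3T3 mouse fibroblasts as host cells; luminescent beta-galactosidase reporter signal from transgenic T. cruzi replicating inside host cells; inhibitors lower the luminescence signal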
[4] = cytotoxicity toward NIH3T3 fibroblasts, dose response, counter-screen, cell-based, ATP luminescence, mouse fibroblasts (AID 2010); assay type: functional;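 note: cells exposed to compound for about 90 hours before reading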
[5] = molecular target: Luciferin 4-monooxygenase (Photinus pyralis, UniProt P08659); test: firefly luciferase enzyme inhibitors, dose response, biochemical, luminescence (AID 1891)
Sequence of Luciferin 4-monooxygenase (P08659 whole entry): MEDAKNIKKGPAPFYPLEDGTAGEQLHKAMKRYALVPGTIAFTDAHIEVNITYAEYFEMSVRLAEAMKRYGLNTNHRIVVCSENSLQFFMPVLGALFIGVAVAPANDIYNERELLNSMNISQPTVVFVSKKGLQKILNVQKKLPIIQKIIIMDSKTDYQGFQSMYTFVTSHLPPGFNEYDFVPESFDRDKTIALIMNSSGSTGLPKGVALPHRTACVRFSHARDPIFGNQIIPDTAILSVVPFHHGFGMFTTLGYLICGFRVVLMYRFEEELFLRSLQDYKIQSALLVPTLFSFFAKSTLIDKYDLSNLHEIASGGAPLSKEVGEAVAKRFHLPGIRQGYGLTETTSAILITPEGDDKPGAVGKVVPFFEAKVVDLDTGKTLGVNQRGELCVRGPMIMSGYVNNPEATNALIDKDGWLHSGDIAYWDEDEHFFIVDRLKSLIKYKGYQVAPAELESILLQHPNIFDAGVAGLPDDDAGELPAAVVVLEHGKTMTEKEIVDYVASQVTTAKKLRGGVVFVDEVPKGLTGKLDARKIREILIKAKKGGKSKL

[6] = Luminescence Cell-Based Dose Confirmation HTS to Identify Inhibitors of Platelet Dense Granule Release. [Related pubchem assays: 1663 (Primary HTS), 1678 (Summary of Project)]; assay type: functional
[7] = molecular target: T1, Replicative DNA helicase DnaB (Mycobacterium tuberculosis, UniProt P9WMR3); test: DnaB intein splicing inhibitors, dose response, biochemical, cell-free fluorescence (AID 449749); assay type: functional
T1 sequence (P9WMR3 whole entry): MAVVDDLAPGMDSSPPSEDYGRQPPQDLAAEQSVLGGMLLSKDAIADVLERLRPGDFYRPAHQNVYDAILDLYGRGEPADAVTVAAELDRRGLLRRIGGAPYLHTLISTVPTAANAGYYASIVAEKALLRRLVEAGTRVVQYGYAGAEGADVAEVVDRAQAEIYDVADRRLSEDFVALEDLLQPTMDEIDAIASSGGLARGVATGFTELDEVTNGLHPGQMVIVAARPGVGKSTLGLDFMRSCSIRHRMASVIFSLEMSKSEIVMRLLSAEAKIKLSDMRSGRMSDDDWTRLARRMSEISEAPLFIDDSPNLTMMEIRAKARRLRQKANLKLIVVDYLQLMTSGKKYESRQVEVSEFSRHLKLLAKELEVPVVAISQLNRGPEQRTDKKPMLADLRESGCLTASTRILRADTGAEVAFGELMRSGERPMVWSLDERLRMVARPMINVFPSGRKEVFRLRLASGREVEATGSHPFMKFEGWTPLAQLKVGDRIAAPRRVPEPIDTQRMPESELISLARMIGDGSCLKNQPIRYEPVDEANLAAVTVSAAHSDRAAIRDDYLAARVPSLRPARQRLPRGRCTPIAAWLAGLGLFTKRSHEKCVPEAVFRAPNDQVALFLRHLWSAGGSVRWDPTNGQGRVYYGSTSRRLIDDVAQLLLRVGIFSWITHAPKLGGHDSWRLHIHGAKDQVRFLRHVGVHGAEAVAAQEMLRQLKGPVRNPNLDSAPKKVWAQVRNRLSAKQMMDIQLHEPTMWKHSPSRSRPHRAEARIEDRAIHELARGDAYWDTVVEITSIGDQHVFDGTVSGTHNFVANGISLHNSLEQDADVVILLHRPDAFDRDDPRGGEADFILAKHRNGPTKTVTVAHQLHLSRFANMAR

Protein RecA = molecular target: T2, Protein RecA (Mycobacterium tuberculosis, UniProt P9WHJ3); test: Fluorescence Cell-Free Homogeneous Dose Retest to Identify Inhibitors of RecA-Intein Splicing Activity. [Related pubchem assays (depositor defined):AID2097, AID2223, AID489010, AID492950]; assay type: functional
T2 sequence (P9WHJ3 whole entry): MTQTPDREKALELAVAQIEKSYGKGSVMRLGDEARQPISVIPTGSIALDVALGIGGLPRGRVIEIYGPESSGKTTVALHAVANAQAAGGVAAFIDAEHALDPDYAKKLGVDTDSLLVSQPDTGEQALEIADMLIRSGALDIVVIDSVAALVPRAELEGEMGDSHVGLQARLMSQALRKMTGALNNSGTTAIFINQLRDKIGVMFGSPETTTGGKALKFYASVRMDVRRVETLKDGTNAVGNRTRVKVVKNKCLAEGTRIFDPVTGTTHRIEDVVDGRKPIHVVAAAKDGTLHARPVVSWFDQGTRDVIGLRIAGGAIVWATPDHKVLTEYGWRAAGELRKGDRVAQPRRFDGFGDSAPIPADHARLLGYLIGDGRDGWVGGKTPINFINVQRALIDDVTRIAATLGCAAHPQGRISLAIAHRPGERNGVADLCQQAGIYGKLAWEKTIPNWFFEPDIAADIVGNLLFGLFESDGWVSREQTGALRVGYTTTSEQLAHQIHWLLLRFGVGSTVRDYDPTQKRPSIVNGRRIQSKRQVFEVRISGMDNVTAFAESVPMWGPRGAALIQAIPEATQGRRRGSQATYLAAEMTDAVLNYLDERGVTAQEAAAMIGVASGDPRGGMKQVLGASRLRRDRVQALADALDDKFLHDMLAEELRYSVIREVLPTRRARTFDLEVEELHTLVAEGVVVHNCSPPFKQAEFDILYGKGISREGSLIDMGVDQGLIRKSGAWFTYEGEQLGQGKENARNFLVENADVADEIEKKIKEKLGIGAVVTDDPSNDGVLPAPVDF

Paired box protein Pax-8 = Paired box protein Pax-8 (Homo sapiens, UniProt Q06710); test: inhibitors of PAX8-driven TPO luciferase reporter, dose response, RMG-I cells, cherry-pick (AID 687027); assay type: functional, cell-based;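 note: luciferase reporter driven by Pax8 target thyroperoxidase promoter measured by SteadyGlo luminescence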
Sequence of Paired box protein Pax-8 (Q06710 whole entry): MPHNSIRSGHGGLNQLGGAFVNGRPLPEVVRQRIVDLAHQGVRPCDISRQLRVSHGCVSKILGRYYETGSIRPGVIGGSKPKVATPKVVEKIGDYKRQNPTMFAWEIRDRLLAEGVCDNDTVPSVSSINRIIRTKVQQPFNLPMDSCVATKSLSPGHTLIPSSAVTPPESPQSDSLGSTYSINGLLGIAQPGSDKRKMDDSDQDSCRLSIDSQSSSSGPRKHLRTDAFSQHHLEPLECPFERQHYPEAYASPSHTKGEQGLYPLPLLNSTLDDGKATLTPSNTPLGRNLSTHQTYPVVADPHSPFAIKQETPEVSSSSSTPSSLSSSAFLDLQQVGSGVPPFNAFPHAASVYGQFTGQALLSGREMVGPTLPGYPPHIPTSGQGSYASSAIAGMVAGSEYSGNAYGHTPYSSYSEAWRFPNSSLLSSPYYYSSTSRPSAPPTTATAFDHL

[8] = molecular target: T3, Ubiquitin-conjugating enzyme E2 N (Homo sapiens, UniProt P61088); assay type: functional;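 note: Dose-response confirmation in a TR-FRET assay detecting UBC13-driven polyubiquitin chain formation, inhibition measured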
T3 sequence (P61088 whole entry): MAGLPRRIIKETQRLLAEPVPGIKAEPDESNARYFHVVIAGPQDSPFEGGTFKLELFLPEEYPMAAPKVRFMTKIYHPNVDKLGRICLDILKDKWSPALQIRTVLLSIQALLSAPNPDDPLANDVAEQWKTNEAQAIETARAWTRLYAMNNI

[9] = Luminescence Cell-Based Dose Retest to Confirm Inhibitors of Cancer Stem Cells. [Related pubchem assays (depositor defined):AID2717, AID2721]; assay type: functional; conditions: Homo sapiens
[10] = Shn3 3'UTR reporter inhibitors, dose response, cell-based, Clone20 osteoblasts, firefly luciferase, cherry-picked (AID 624132); assay type: functional;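 note: firefly luciferase luminescence from reporter carrying the Shn3 3'UTR in osteoblasts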
[11] = molecular target: T4, Heat shock factor protein 1 (Mus musculus, UniProt P38532); test: HSF1 potentiators in luciferase reporter cells, confirmation, cell-based, NIH3T3, luminescence, dose retest (AID 435004); assay type: functional;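 note: stress induced by proteasome inhibitor MG132 added 30 min after compound; luciferase reporter driven by HSF1 response element in NIH3T3 cells; actives raise luminescence as potentiators of the MG132 stress response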
T4 sequence (P38532 whole entry): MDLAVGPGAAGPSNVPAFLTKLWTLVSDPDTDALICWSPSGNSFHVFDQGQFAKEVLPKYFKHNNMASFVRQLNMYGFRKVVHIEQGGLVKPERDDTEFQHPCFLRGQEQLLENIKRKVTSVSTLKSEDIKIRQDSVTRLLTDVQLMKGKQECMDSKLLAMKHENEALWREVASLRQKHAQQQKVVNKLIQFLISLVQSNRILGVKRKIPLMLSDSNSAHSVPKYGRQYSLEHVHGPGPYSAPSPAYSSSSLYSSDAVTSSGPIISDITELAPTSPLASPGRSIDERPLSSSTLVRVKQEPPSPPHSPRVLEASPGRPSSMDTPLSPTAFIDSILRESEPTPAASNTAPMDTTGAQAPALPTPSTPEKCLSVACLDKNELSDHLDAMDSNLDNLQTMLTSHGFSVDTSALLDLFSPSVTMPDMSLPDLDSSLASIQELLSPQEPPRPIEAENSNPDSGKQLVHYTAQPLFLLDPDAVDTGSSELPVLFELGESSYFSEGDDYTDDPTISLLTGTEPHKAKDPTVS

[12] = molecular target: T5, Corticotropin-releasing factor receptor 2/Corticotropin-releasing factor-binding protein (Homo sapiens, UniProt P24387+Q13324); test: activators of CRF receptor 2 with binding protein – uHTS hits, confirmation (AID 602473); assay type: functional; conditions: read-out: EC50_Mean
T5 sequence (Q13324 whole entry): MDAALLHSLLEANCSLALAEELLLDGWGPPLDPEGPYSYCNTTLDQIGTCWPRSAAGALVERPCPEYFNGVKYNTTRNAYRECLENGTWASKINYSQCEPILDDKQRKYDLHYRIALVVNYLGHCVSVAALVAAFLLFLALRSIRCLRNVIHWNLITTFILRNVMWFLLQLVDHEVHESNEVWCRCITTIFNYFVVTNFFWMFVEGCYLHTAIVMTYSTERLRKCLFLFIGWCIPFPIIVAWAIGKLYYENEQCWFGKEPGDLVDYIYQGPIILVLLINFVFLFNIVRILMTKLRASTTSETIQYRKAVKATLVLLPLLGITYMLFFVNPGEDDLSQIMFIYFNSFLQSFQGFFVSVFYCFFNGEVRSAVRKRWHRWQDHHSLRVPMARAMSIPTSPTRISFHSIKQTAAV
T5 sequence (P24387 whole entry): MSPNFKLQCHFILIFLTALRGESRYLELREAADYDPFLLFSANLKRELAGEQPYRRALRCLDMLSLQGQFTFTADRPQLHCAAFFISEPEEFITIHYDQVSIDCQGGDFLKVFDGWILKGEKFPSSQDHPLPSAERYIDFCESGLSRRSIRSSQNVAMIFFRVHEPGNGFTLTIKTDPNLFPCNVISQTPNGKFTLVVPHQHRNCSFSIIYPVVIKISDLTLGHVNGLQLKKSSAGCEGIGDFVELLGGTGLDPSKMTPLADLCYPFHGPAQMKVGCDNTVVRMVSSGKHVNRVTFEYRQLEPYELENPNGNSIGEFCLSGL

[13] = inhibitors of clade B AD8 Env fusion, dose response, cell-based, cherry-pick (AID 652062); assay type: functional;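 note: luciferase signal from cell-cell fusion driven by HIV-1 clade B AD8 Env; potency is for inhibitors of fusion seen as a drop in luminescence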

## C/[N+]([O-])=C\c1ccc([N+](=O)[O-])o1
[1]
  EC50: > 160 µM (inactive)
[2]
  EC50: 0.885 µM (active)
[3]
  EC50: 0.54 µM (active)
[4]
  EC50: > 60 µM (not active)

## O=C(Nc1ccc(C(=O)N2CCN(c3ccc(Cl)cc3)CC2)cc1)C1=CSCCO1
[5]
  EC50: 31.2 µM (active)
[6]
  EC50: > 112 µM (not active)

## COc1ccc(C(=O)n2nnc3ccccc32)cc1Br
[7]
  AC50: 24.6 µM (active)
Protein RecA
  EC50: 30 µM (active)

## CC[n+]1ccc2cc(OC)c(OC)cc2c1Cc1ccc(OC)c(OC)c1
[7]
  AC50: > 120 µM (inactive)
Protein RecA
  EC50: > 380 µM (inactive)

## Cc1ccc2nc(Cl)c3nnnn3c2c1
[1]
  EC50: 4.94 µM (inconclusive)
[2]
  EC50: 0.646 µM (active)

## CC1(C)CC(=O)C=C(Nc2ccc3c(c2)OCCO3)C1
[5]
  EC50: > 112 µM (not active)
[6]
  EC50: 11 µM (active)

## CCN(CC)CC(=O)n1c2c(c3ccccc31)CCCC2
[5]
  EC50: > 112 µM (not active)
[6]
  EC50: > 112 µM (not active)

## COC(=O)C1=C(c2ccc(F)cc2OCc2ccccc2)C[C@@H]2CC[C@H]1N2C(=O)NCc1ccc(C)cc1
Paired box protein Pax-8
  AC50: 15.1 µM (active)

## Cn1c(SCC(=O)NCC2CCCO2)ncc(C(=O)Nc2ccccc2)c1=O (configuration not stated)
[7]
  AC50: 28 µM (active)
Protein RecA
  EC50: 3.38 µM (active)

## Oc1ccc(C2=NN=C(NCc3ccc4c(c3)OCO4)SC2)c(O)c1
[8]
  IC50: > 20 µM (inactive)

## O=C(CSc1cccc[n+]1[O-])CSc1cccc[n+]1[O-]
[1]
  EC50: > 160 µM (inactive)
[2]
  EC50: 3.9 µM (active)
[3]
  EC50: 6.09 µM (active)
[4]
  EC50: > 30 µM (not active)

## Cc1c(CCOC(=O)CC23CC4CC(CC(C4)C2)C3)sc[n+]1CC(=O)c1ccc(Br)cc1
[9]
  AC50: 2.42 µM (active)
[8]
  IC50: > 20 µM (inactive)
[10]
  AC50: 12.9 µM (active)

## OC(CNCc1cccc(Cl)c1)c1ccccc1 (configuration not stated)
[5]
  EC50: > 112 µM (not active)
[6]
  EC50: 21.2 µM (active)
[11]
  EC50: > 260 µM (inactive)

## O=S(=O)(Nc1ccc(-c2ccc(N3CCOCC3)nn2)cc1)c1ccc(Cl)c(Cl)c1
[5]
  EC50: 35.3 µM (active)
[6]
  EC50: > 112 µM (not active)

## COc1ccc(/C=C2/C(=O)N(c3cccc(F)c3)N=C2C)c(OC)c1
[7]
  AC50: 4.14 µM (active)
Protein RecA
  EC50: 44.6 µM (active)

## Oc1ccc2ccccc2c1CNc1ccccn1
[8]
  IC50: > 20 µM (inactive)

## COc1cc2c(cc1OC)C(c1c(Cl)cccc1Cl)NC(=O)C2 (configuration not stated)
[12]
  EC50: 10.9 µM (active)

## COc1ccccc1NS(=O)(=O)c1cc(NC(=O)CCC(=O)c2cccs2)ccc1Cl
[1]
  EC50: 123 µM (active)
[2]
  EC50: 0.417 µM (active)

## COc1nc2ccccc2nc1OC
[5]
  EC50: > 112 µM (not active)
[6]
  EC50: > 112 µM (not active)

## Cc1cccc(OCC(=O)Oc2ccc(Cl)cc2)c1
[7]
  AC50: 9.75 µM (active)
Protein RecA
  EC50: 35.1 µM (active)

## CCN(C[C@H]1N[C@@](Cc2ccccc2)(C(=O)OC)[C@H]2C(=O)N(Cc3ccccc3)C(=O)[C@@H]12)C(=O)C1CCCCC1
[12]
  EC50: 5.33 µM (active)

## CC1=NN(C)C(=O)C1Cc1c(F)cccc1Cl (configuration not stated)
[7]
  AC50: 5.39 µM (active)
Protein RecA
  EC50: 0.74 µM (active)

## CN(C)/C=N/c1nccc(-c2cccs2)n1
[12]
  EC50: > 53 µM (inactive)

## CN(C)Cc1cn(CC[C@@H]2CC[C@H](N)[C@H](CO)O2)nn1
[13]
  AC50: 22.9 µM (active)

## Cc1ccc(OCC(=O)N/N=C\c2c(C)[nH]n(-c3ccccc3)c2=O)c([N+](=O)[O-])c1
[1]
  EC50: > 150 µM (inactive)
[2]
  EC50: 6.77 µM (active)

## C/C(CC(=O)Nc1ccc(Cl)cn1)=N\NC(=O)Cc1cccs1
[7]
  AC50: 30.5 µM (active)
Protein RecA
  EC50: 5.12 µM (active)

## Nc1c(Cl)ncnc1N/N=C/c1cccc(O)c1
[5]
  EC50: 58.1 µM (active)
[6]
  EC50: 22 µM (active)

## Cc1ccc(-n2nc(C)c(/C=N/NC(=O)c3ccc([N+](=O)[O-])cc3)c2O)c(C)c1
[1]
  EC50: 11.7 µM (active)
[2]
  EC50: 1.71 µM (active)
[7]
  AC50: 6.38 µM (active)
Protein RecA
  EC50: 21.2 µM (active)
